These results are taken from paper PMC5976250 (The Biochemical journal, 2017).

The test system of experiment [1] is full-length Cx45 (mCx45-Rluc) interaction with Venus–CaM. Nature of the experiment: BRET assay of CaM–Cx45 interaction in live HEK293 cells. Particulars: 50 μM BAPTA-AM. In kind it is cell-based, mouse (Cx45); rat (CaM). (In general: Bioluminescence resonance energy transfer reports proximity on the nanometre scale.)
The subject of experiment [2] is electrical uncoupling (gap junctions), amphibian embryonic cells, crayfish axons. Particulars: cited from earlier work; for effect on uncoupling: Xenopus embryonic cells, ref [73], crayfish axons, ref [74],[75].
For experiment [3], the target named is T1, CaM (Rattus norvegicus, UniProt P0DP29). Particulars: earlier connexin peptide studies; ref [49]; cited from earlier work.
The test system of experiment [4] is CaM. Conditions: α-family; ref [34],[49]; cited from earlier work.
In experiment [5] the target is T1, CaM. Particulars: complex formation; ref [49]; listed as Cx50-derived peptide; cited from earlier work.

Consider `CC(=O)OCOC(=O)CN(CC(=O)OCOC(C)=O)c1ccccc1OCCOc1ccccc1N(CC(=O)OCOC(C)=O)CC(=O)OCOC(C)=O` [BAPTA-AM], for which the “intracellular Ca2+ after treatment” value in experiment [1] is reported as ~ 0.27 nM. Moreover, the “BRET signal (ratio 525/460 nm) after treatment” value in experiment [1] (20 min) is recorded as ~ 0.03.
For `Cl.NCCCCCCNS(=O)(=O)c1cccc2c(Cl)cccc12` [W7, N-(6-aminohexyl)-5-chloro-1-naphthalenesulfonamide hydrochloride], in experiment [2], the effect on uncoupling entry is given as “prevent uncoupling”.
Take `Clc1ccc(C(c2ccc(Cl)cc2)n2cc[n+](CC(OCc3ccc(Cl)cc3Cl)c3ccc(Cl)cc3Cl)c2)cc1` (centres unmarked) [calmidazolium]: the effect on uncoupling entry in experiment [2] was “prevent uncoupling”.
Consider `CN1CCN(CCCN2c3ccccc3Sc3ccc(C(F)(F)F)cc32)CC1` [trifluoperazine (TFP), trifluoperazine], for which the “effect on electrical uncoupling of amphibian embryonic cells” value in experiment [2] (ref [72]) was “protected amphibian embryonic cells from electrical uncoupling”.
In the case of “Cx43p136–158: α-family connexin Cx43 peptide”, the “chemical shift change pattern of CaM (literature)” value with CaM [3] was “localized change”. Further, in the experiment on CaM [4], the “binding mode to CaM (literature)” value is on record as “compact form”.
On to “Cx44p132–153: α-family connexin Cx44 peptide”, for which the “binding mode to CaM (literature)” value in the experiment with CaM [4] is listed as “compact form”.
With “Cx50p141–166: α-family connexin Cx50 peptide (FRLEGTLLRTYICHIIFKTLFEVGFI; UniProt P48165 141-166, looked up, fragment)”, the “decrease in hydrodynamic radius of CaM” value in the experiment with CaM [5] is given as “decreased significantly”. In the experiment with CaM [3], the “chemical shift change pattern of CaM (literature)” value is listed as “localized change”. Besides, the “binding mode to CaM (literature)” value in the experiment on CaM [4] was “embraced compact form”.
